Type in all cases: cell-based
A short description of series [1]: Cytotoxicity in PHH natural infection assay (Cell Counting Kit-8). To be noted: HBV-infected primary human hepatocytes, CCK8. The protocol: (§1) Detailed procedures regarding primary human hepatocyte (PHH) HBV natural infection assay are described as below. One tube of frozen PHH (10 million cells) is thawed in 37° C. water bath and then transferred to 20 mL of PHH thawing medium (Sigma, InVitroGRO HT Medium, Cat. S03319) with gently mixing. The cells were then centrifuged at […] for 5 min, the supernatant was discarded and the tube was refilled with 25 mL of PHH plating medium (Sigma, InVitroGRO CP Medium, Cat. 503317). The tube was shaken very gently to re-suspend all cells. 50 μl of cells were transferred to each well 384-well collagen I coated plate with appropriate liquid handling equipment, e.g. Integra VIAFLO384 or Agilent Bravo. The cells were then cultured for 24 hours in a cell incubator. For HBV infection, after PHH attachment on the culture plate, the plating medium was removed and replenished with PHH culture medium containing HBV virus. The PHH culture medium was prepared with Dulbecco's Modified Eagle Medium (DMEM)/F12 (1:1 in volume ratio) containing 10% fetal bovine serum (Gibco, Cat. 10099141), […] (Gibco, Cat. PHG03I1L), 20 ng/mL dexamethasone (Sigma, Cat. D4902-100 mg), 250 ng/mL human recombinant insulin (Gibco, Cat. 41400045) and 100 U/mL penicillin. HBV virus at 200 genome equivalent (GE) per cell with 4% PEG8000 (Sigma, Cat. P1458) containing culture medium were added to the PHH culture medium for infection. The cells were then cultured for 24 hours in cell incubator. Then the cell culture supernatant was removed. The HBV-infected PHH were cultured with sandwich culture method with PHH culture medium containing 1% DMSO and 0.25 mg/mL matrix gel for 72 hours. The supernatant was then refreshed with PHH culture medium containing different concentrations of testing compounds for two times with 72-hour interval. At the end of treatment, the supernatant was collected for viral markers measurements, including HBsAg, HBeAg, HBV DNA and cytotoxicity. HBsAg and HBeAg were detected using alphalisa method using their specific antibodies. For HBV DNA detection, HBV DNA Quantitative Fluorescence Diagnostic Kit (Sansure Biotech Inc.) was used following the manufacture's protocol. Cytotoxicity was determined using Cell Counting Kit-8 (CCK8, Dojindo Molecular Technologies, Inc.).
For orientation: Formazan colour is commonly taken as a measure of viable cells.

The subject of another series is HBeAg. The experiment in a line: PHH HBV natural infection assay, HBeAg (alphalisa). The following applies: Hepatitis B virus, Hepatocyte, 72 h, read-out: HbeAg IC50. The protocol: as §1
(§2) The compounds of the present invention were tested for their capacity to inhibit HBsAg and HBeAg as described herein.

The subject of another series is HBsAg. The experiment in a line: PHH HBV natural infection assay, HBsAg (alphalisa). The following applies: Hepatitis B virus, Hepatocyte, 72 h, read-out: HBsAg IC50. The protocol: as §1, §2

The text below walks through data of patent US20230286929A1, “AROMATIC BRIDGED RING AMIDE DERIVATIVES FOR THE TREATMENT AND PROPHYLAXIS OF HEPATITIS B VIRUS INFECTION” (Hoffmann-La Roche Inc., priority 2020, published 2023).

pIC50: −log10 of the molar value.

In general, CC50 refers to the concentration that lowers cell viability or growth by half. Low values mean greater toxicity to the cells, high ones lower toxicity to the cells. Broadly, the pIC50 is the IC50 on a negative log10 scale, so that one unit is a factor of ten.

`CS(=O)(=O)Cc1ccc(C(=O)NC23CC(c4nc5cc(Cl)cnc5o4)(C2)C3)o1` [Example 41, N-[3-(6-chlorooxazolo[5,4-b]pyridin-2-yl)-1-bicyclo[1.1.1]pentanyl]-5-(methylsulfonylmethyl)furan-2-carboxamide]: the CC50 at 144 h in series [1] was more than 100 µM. The pIC50 in the series with HBeAg is 5.21; in the series with HBsAg, 5.24.

In series [1], `O=C(NC12CC(c3nc4cc(Cl)cnc4o3)(C1)C2)c1ccnc(C(F)(F)F)c1` [Example 42, N-[3-(6-chlorooxazolo[5,4-b]pyridin-2-yl)-1-bicyclo[1.1.1]pentanyl]-2-(trifluoromethyl)pyridine-4-carboxamide] gave a CC50 at 144 h of 92 µM. The pIC50 in the series on HBeAg was 4.97; with HBsAg it was 5.05.

On to `CS(=O)(=O)Cc1ccc(C(=O)NC23CC(c4nc5cnc(Cl)cc5o4)(C2)C3)o1` [Example 43, N-[3-(6-chlorooxazolo[4,5-c]pyridin-2-yl)-1-bicyclo[1.1.1]pentanyl]-5-(methylsulfonylmethyl)furan-2-carboxamide], for which the CC50 at 144 h in series [1] was more than 10 µM. Further, the values for the negative-log IC50 (pIC50) in the series on HBeAg and in the series on HBsAg were 5.26 and 5.12, respectively.

With `CS(=O)(=O)c1ccc(C(=O)NC23CC(c4nc5cccc(Cl)c5o4)(C2)C3)o1` [Example 44, N-[3-(7-chloro-1,3-benzoxazol-2-yl)-1-bicyclo[1.1.1]pentanyl]-5-methylsulfonyl-furan-2-carboxamide], the CC50 at 144 h in series [1] is more than 100 µM. Further, the figures for the pIC50 in the series on HBeAg and with HBsAg were 5.51 and 5.05, respectively.

The compound `CS(=O)(=O)c1ccc(C(=O)NC23CC(c4nc5ccc(F)cc5o4)(C2)C3)o1` [Example 45, N-[3-(6-fluoro-1,3-benzoxazol-2-yl)-1-bicyclo[1.1.1]pentanyl]-5-methylsulfonyl-furan-2-carboxamide] displayed a CC50 at 144 h in series [1] of more than 100 µM. Besides, the results for the pIC50 with HBeAg and in the series on HBsAg were 5.35 and 5.06, respectively.

In series [1], `CS(=O)(=O)c1ccc(C(=O)NC23CCC(c4nc5cc(Cl)ccc5o4)(CC2)C3)o1` [Example 46, N-[4-(5-chloro-1,3-benzoxazol-2-yl)norbornan-1-yl]-5-methylsulfonyl-furan-2-carboxamide] returned a CC50 at 144 h of 76.6 µM. The pIC50 was 5.35 in the series on HBeAg and 5.15 in the series on HBsAg.

The compound `O=C(NC12CCC(c3nc4cc(Cl)ccc4o3)(CC1)CC2)c1ccc(C(F)(F)F)o1` [Example 47, N-[4-(5-chloro-1,3-benzoxazol-2-yl)-1-bicyclo[2.2.2]octanyl]-5-(trifluoromethyl)furan-2-carboxamide] yielded a CC50 at 144 h in series [1] of more than 100 µM. Besides, the pIC50 with HBeAg is 5.41; in the series on HBsAg, 5.11.

Compound `O=C(NC12CCC(c3nc4cc(Cl)ccc4o3)(CC1)CC2)C1CC2(C1)CS(=O)(=O)C2` [Example 48, N-[4-(5-chloro-1,3-benzoxazol-2-yl)-1-bicyclo[2.2.2]octanyl]-2,2-dioxo-2lambda6-thiaspiro[3.3]heptane-6-carboxamide] came in with a CC50 at 144 h in series [1] of more than 100 µM. Besides, the pIC50 is 5.99 with HBeAg and 5.77 in the series with HBsAg.

In turn, `O=C(NC12CCC(c3nc4cc(Cl)ccc4o3)(CC1)CC2)C1CCCS1(=O)=O` (stereo not drawn) [Example 49, N-[4-(5-chloro-1,3-benzoxazol-2-yl)-1-bicyclo[2.2.2]octanyl]-1,1-dioxo-thiolane-2-carboxamide] displayed a CC50 at 144 h in series [1] of more than 100 µM. Besides, the pIC50 was 5.90 with HBeAg and 5.56 in the series with HBsAg.

The compound `O=C(NC12CCC(c3nc4cc(Cl)ccc4o3)(CC1)CC2)C1CCS(=O)(=O)C1` (stereo not drawn) [Example 50, N-[4-(5-chloro-1,3-benzoxazol-2-yl)-1-bicyclo[2.2.2]octanyl]-1,1-dioxo-thiolane-3-carboxamide] gave a CC50 at 144 h in series [1] of more than 100 µM. The pIC50 in the series with HBeAg is 5.29; in the series with HBsAg it was 5.38.

On to `CC1(C(=O)NC23CCC(c4nc5cc(Cl)ccc5o4)(CC2)CC3)CCS(=O)(=O)C1` (stereo not drawn) [Example 51, N-[4-(5-chloro-1,3-benzoxazol-2-yl)-1-bicyclo[2.2.2]octanyl]-3-methyl-1,1-dioxo-thiolane-3-carboxamide], for which the CC50 at 144 h in series [1] is more than 100 µM. The negative-log IC50 (pIC50) in the series with HBeAg was 5.31; in the series with HBsAg, 5.04.

With `O=C(NC12CCC(c3nc4cc(Cl)ccc4o3)(CC1)CC2)C1CCCS(=O)(=O)C1` (stereo not drawn) [Example 52, N-[4-(5-chloro-1,3-benzoxazol-2-yl)-1-bicyclo[2.2.2]octanyl]-1,1-dioxo-thiane-3-carboxamide], the CC50 at 144 h in series [1] was more than 100 µM. The pIC50 with HBeAg is 5.98; with HBsAg, 5.56.

With `O=C(CC1CCCS1(=O)=O)NC12CCC(c3nc4cc(Cl)ccc4o3)(CC1)CC2` (stereo not drawn) [Example 53, N-[4-(5-chloro-1,3-benzoxazol-2-yl)-1-bicyclo[2.2.2]octanyl]-2-(1,1-dioxothiolan-2-yl)acetamide], in series [1], the CC50 at 144 h is more than 100 µM. The results for the pIC50 with HBeAg and in the series with HBsAg were 5.73 and 5.64, respectively.

For the compound `O=C(CC1CCCS(=O)(=O)C1)NC12CCC(c3nc4cc(Cl)ccc4o3)(CC1)CC2` (stereo not drawn) [Example 54, N-[4-(5-chloro-1,3-benzoxazol-2-yl)-1-bicyclo[2.2.2]octanyl]-2-(1,1-dioxothian-3-yl)acetamide], in series [1], the CC50 at 144 h is 43.9 µM. Besides, the pIC50 is 5.49 in the series with HBeAg and 5.47 in the series with HBsAg.

In the case of `O=C(CN1CCCCS1(=O)=O)NC12CCC(c3nc4cc(Cl)ccc4o3)(CC1)CC2` [Example 55, N-[4-(5-chloro-1,3-benzoxazol-2-yl)-1-bicyclo[2.2.2]octanyl]-2-(1,1-dioxothiazinan-2-yl)acetamide], the CC50 at 144 h in series [1] is more than 100 µM. The pIC50 with HBeAg is 6.05; in the series with HBsAg it was 5.69.
